Consider ten compounds from patent US20250353820A1, “ANTIVIRAL PYRAZOLOPYRIDINONE COMPOUNDS” (Novartis AG, priority 2019, published 2025).

Structures are written as SMILES.

This assay concerns the target human HSV DNA polymerase UL30 (Human herpesvirus 1 (strain 17) (HHV-1) (Human herpes simplex virus 1), UniProt P04293). As to the kind of experiment: biochemical. The settings on record: 625 pM HSV polymerase, 20 minutes at room temperature; read-out: HSV-polymerase Biochemical IC50.
In general, IC50 refers to the concentration needed to halve the response being measured. Take `Cn1nc(C(=O)NCc2ccc(C#N)cc2)c2c1C(=O)N(CC1(S(C)(=O)=O)CC1)CC2` [Example 21, N-(4-Cyanobenzyl)-1-methyl-6-((1-(methylsulfonyl)cyclopropyl)methyl)-7-oxo-4,5,6,7-tetrahydro-1H-pyrazolo[3,4-c]pyridine-3-carboxamide]: the IC50 was found to be 517 nM. For `C[C@@H](NC(=O)c1nn(C)c2c1CCN(CC1(S(=O)(=O)C3CC3)CC1)C2=O)c1ccc(C#N)cc1` [Example 17, (R)-N-(1-(4-Cyanophenyl)ethyl)-6-((1-(cyclopropylsulfonyl)cyclopropyl)methyl)-1-methyl-7-oxo-4,5,6,7-tetrahydro-1H-pyrazolo[3,4-c]pyridine-3-carboxamide], the IC50 is above 25000 nM. For `CN(C(CO)CO)S(=O)(=O)C1(CN2CCc3c(C(=O)NCc4ccc(C#N)cc4)nn(C)c3C2=O)CC1` [Example 147, N-(4-Cyanobenzyl)-6-((1-(N-(1,3-dihydroxypropan-2-yl)-N-methylsulfamoyl)cyclopropyl)methyl)-1-methyl-7-oxo-4,5,6,7-tetrahydro-1H-pyrazolo[3,4-c]pyridine-3-carboxamide], the IC50 is 644 nM.

Turning to `Cn1nc(C(=O)NCc2ccc(C#N)cc2)c2c1C(=O)N(CC1(S(=O)(=O)N3CCC(O)CC3)CC1)CC2` [Example 125, N-(4-Cyanobenzyl)-6-((1-((4-hydroxypiperidin-1-yl)sulfonyl)cyclopropyl)methyl)-1-methyl-7-oxo-4,5,6,7-tetrahydro-1H-pyrazolo[3,4-c]pyridine-3-carboxamide], the IC50 was determined as 136 nM.

Take `Cn1nc(C(=O)NCc2ccc(C#N)cc2)c2c1C(=O)N(CC1(S(=O)(=O)NC3COC3)CC1)CC2` [Example 132, N-(4-Cyanobenzyl)-1-methyl-6-((1-(N-(oxetan-3-yl)sulfamoyl)cyclopropyl)methyl)-7-oxo-4,5,6,7-tetrahydro-1H-pyrazolo[3,4-c]pyridine-3-carboxamide]: the IC50 was 451 nM. Consider `COCC(C)(COC)S(=O)(=O)C1(CN2CCc3c(C(=O)NCc4ccc(C#N)cc4)nn(C)c3C2=O)CC1` [Example 179, N-(4-Cyanobenzyl)-6-((1-((1,3-dimethoxy-2-methylpropan-2-yl)sulfonyl)cyclopropyl)methyl)-1-methyl-7-oxo-4,5,6,7-tetrahydro-1H-pyrazolo[3,4-c]pyridine-3-carboxamide], for which the IC50 turned out to be 61 nM. Under `Cn1nc(C(=O)NCc2ccc(C#N)cc2)c2c1C(=O)N(CC1(S(=O)(=O)N3CCC(N)CC3)CC1)CC2` [Example 138, 6-((1-((4-Aminopiperidin-1-yl)sulfonyl)cyclopropyl)methyl)-N-(4-cyanobenzyl)-1-methyl-7-oxo-4,5,6,7-tetrahydro-1H-pyrazolo[3,4-c]pyridine-3-carboxamide] stands 326 nM; under `CN(C)/C=N/S(=O)(=O)C1(CN2CCc3c(C(=O)NCc4ccc(Cl)cc4)nn(C)c3C2=O)CC1` [Example 122, (E)-N-(4-Chlorobenzyl)-6-((1-(N-((dimethylamino)methylene)sulfamoyl)cyclopropyl)methyl)-1-methyl-7-oxo-4,5,6,7-tetrahydro-1H-pyrazolo[3,4-c]pyridine-3-carboxamide], 324 nM. With `Cn1nc(C(=O)NCc2ccc(C#N)cc2)c2c1C(=O)N(CC1(S(=O)(=O)NCCCN)CC1)CC2` [Example 134, 6-((1-(N-(3-Aminopropyl)sulfamoyl)cyclopropyl)methyl)-N-(4-cyanobenzyl)-1-methyl-7-oxo-4,5,6,7-tetrahydro-1H-pyrazolo[3,4-c]pyridine-3-carboxamide], the IC50 worked out at 282 nM. Consider `C[C@H](N)C(=O)NCC(C)(C)S(=O)(=O)C1(CN2CCc3c(C(=O)NCc4ccc(C#N)cc4)nn(C)c3C2=O)CC1` [Example 76, (S)-6-((1-((1-(2-Aminopropanamido)-2-methylpropan-2-yl)sulfonyl)cyclopropyl)methyl)-N-(4-cyanobenzyl)-1-methyl-7-oxo-4,5,6,7-tetrahydro-1H-pyrazolo[3,4-c]pyridine-3-carboxamide], for which the IC50 worked out at 123 nM.
